In patent publication US8168651B2, “Protein kinase modulators” (Cylene Pharmaceuticals, Inc., priority 2008, dated 2012):

Legend:
Assay in all cases: Standardized radiometric kinase assays, percentage of activity at 0.5 μM;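 also: Read-out is ³³P-labelled substrate protein phosphorylated by each kinase, captured on filters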
[1] = target: each individual kinase of the panel (Homo sapiens, UniProt O75582)
[2] = target: each individual kinase of the panel (Homo sapiens, UniProt Q9H2G2)
[3] = target: each individual kinase of the panel (Homo sapiens, UniProt Q9HBY8)
[4] = target: each individual kinase of the panel (Homo sapiens, UniProt P53667)
[5] = target: each individual kinase of the panel (Homo sapiens, UniProt Q5VT25)
[6] = target: each individual kinase of the panel (Homo sapiens, UniProt P51817)
[7] = target: each individual kinase of the panel (Homo sapiens, UniProt Q9NQU5)
[8] = target: each individual kinase of the panel (Homo sapiens, UniProt P29323)
[9] = target: each individual kinase of the panel (Homo sapiens, UniProt Q02156)
[10] = target: each individual kinase of the panel (Homo sapiens, UniProt Q8TF76)
[11] = target: each individual kinase of the panel (Homo sapiens, UniProt Q8TDX7)
[12] = target: each individual kinase of the panel (Homo sapiens, UniProt Q05513)
[13] = target: each individual kinase of the panel (Homo sapiens, UniProt O14920)
[14] = target: each individual kinase of the panel (Homo sapiens, UniProt Q96PF2)
[15] = target: each individual kinase of the panel (Homo sapiens, UniProt Q15759)
[16] = target: each individual kinase of the panel (Homo sapiens, UniProt Q15139)
[17] = target: each individual kinase of the panel (Homo sapiens, UniProt Q16620)
[18] = target: each individual kinase of the panel (Homo sapiens, UniProt P22455)
[19] = target: each individual kinase of the panel (Homo sapiens, UniProt P53779)
[20] = target: each individual kinase of the panel (Homo sapiens, UniProt Q9UPE1)
[21] = target: each individual kinase of the panel (Homo sapiens, UniProt Q9UBE8)
[22] = target: each individual kinase of the panel (Homo sapiens, UniProt Q05655)
[23] = target: each individual kinase of the panel (Homo sapiens, UniProt P09769)
[24] = target: each individual kinase of the panel (Homo sapiens, UniProt Q00535)
[25] = target: each individual kinase of the panel (Homo sapiens, UniProt Q15831)
[26] = target: each individual kinase of the panel (Homo sapiens, UniProt Q9BXA7)
[27] = target: each individual kinase of the panel (Homo sapiens, UniProt Q9UHD2)
[28] = target: each individual kinase of the panel (Homo sapiens, UniProt Q9P286)
[29] = target: each individual kinase of the panel (Homo sapiens, UniProt P10721, V654A)
[30] = target: each individual kinase of the panel (Homo sapiens, UniProt Q8N568)
[31] = target: each individual kinase of the panel (Homo sapiens, UniProt P14616)
Sequence of each individual kinase of the panel (Homo sapiens, UniProt P14616) (P14616 27-742 limits assumed): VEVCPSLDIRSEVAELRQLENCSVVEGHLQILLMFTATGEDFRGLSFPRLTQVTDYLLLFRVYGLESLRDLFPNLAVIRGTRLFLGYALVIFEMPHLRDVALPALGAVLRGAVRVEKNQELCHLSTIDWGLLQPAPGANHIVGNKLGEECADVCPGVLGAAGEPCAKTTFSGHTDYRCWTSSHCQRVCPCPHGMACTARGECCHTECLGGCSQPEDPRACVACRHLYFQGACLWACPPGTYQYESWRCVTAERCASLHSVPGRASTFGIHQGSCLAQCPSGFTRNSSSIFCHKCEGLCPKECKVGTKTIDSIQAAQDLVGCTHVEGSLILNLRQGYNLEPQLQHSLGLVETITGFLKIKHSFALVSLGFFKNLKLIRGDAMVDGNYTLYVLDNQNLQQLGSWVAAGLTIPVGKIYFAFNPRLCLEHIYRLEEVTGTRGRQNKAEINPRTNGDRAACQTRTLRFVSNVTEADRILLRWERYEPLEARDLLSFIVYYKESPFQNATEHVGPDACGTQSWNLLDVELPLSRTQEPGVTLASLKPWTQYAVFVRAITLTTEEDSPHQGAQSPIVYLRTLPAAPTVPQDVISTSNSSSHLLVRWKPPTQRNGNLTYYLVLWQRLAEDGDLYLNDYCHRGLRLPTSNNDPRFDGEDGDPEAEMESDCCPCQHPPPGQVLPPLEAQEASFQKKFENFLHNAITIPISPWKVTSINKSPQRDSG
Sequence of each individual kinase of the panel (Homo sapiens, UniProt P14616) (P14616 747-1297 limits assumed): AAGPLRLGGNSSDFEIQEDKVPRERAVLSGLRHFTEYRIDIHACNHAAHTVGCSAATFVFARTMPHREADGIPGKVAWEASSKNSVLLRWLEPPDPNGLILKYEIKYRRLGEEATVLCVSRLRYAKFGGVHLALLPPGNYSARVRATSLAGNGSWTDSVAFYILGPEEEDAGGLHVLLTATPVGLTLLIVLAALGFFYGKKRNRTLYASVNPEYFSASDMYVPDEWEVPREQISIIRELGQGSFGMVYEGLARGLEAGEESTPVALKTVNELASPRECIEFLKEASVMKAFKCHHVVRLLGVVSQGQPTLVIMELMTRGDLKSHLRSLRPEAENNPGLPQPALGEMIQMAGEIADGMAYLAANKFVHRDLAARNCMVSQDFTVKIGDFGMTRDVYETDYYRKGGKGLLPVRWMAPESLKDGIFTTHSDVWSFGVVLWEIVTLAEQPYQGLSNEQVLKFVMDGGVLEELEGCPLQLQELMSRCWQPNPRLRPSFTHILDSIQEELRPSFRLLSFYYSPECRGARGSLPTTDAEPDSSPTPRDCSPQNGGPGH

Sequence of each individual kinase of the panel (Homo sapiens, UniProt P29323) (P29323 19-1055 limits assumed): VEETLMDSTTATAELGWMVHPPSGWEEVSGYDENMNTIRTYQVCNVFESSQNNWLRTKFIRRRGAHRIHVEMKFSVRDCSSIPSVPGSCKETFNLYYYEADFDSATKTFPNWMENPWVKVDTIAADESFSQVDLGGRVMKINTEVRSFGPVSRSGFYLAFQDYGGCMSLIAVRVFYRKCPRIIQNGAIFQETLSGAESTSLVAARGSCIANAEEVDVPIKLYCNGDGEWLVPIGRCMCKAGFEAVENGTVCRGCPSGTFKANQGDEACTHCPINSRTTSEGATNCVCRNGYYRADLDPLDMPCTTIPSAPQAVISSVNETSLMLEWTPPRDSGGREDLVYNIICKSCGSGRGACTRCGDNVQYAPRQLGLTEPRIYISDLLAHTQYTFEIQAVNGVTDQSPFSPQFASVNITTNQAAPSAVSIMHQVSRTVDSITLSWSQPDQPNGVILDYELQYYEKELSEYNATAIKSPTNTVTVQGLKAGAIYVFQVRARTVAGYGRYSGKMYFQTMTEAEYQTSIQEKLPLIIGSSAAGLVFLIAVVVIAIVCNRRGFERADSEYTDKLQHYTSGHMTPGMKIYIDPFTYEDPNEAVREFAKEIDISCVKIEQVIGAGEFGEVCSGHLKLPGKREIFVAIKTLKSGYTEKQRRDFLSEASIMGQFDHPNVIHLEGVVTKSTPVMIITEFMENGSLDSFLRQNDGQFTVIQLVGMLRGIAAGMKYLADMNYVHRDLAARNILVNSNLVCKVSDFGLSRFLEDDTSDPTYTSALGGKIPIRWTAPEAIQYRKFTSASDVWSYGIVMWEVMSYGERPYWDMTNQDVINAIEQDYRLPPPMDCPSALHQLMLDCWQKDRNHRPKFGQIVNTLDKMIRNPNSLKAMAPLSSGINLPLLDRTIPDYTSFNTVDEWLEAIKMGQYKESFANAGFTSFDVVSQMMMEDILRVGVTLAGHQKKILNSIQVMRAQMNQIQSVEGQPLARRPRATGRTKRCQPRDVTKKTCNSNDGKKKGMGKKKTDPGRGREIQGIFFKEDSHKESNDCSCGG
Sequence of each individual kinase of the panel (Homo sapiens, UniProt P10721, V654A) (P10721 26-976 V654A limits assumed): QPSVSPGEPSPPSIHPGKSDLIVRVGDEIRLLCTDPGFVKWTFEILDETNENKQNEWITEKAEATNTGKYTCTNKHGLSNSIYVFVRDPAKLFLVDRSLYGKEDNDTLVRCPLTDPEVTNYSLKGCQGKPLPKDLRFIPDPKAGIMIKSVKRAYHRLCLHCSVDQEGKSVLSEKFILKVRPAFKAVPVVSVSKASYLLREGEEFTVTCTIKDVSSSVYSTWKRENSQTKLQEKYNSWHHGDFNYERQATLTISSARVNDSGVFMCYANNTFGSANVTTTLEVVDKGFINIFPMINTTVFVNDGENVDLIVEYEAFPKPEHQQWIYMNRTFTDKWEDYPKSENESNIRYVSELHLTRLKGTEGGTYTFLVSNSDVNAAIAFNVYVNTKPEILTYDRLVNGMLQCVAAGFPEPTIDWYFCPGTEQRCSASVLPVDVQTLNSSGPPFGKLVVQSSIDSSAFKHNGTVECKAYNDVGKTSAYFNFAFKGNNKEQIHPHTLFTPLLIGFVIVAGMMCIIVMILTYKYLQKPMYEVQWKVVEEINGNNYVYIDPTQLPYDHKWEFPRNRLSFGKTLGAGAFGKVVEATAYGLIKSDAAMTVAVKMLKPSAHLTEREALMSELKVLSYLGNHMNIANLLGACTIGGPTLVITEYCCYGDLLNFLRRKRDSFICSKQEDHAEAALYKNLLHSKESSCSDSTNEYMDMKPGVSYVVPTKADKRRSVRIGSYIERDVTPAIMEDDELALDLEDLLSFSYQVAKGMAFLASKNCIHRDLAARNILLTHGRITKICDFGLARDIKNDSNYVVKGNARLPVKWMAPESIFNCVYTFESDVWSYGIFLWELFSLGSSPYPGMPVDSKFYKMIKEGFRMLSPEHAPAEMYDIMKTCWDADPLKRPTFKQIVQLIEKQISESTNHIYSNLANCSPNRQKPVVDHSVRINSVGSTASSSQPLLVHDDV
Sequence of each individual kinase of the panel (Homo sapiens, UniProt Q16620) (Q16620 32-822 limits assumed): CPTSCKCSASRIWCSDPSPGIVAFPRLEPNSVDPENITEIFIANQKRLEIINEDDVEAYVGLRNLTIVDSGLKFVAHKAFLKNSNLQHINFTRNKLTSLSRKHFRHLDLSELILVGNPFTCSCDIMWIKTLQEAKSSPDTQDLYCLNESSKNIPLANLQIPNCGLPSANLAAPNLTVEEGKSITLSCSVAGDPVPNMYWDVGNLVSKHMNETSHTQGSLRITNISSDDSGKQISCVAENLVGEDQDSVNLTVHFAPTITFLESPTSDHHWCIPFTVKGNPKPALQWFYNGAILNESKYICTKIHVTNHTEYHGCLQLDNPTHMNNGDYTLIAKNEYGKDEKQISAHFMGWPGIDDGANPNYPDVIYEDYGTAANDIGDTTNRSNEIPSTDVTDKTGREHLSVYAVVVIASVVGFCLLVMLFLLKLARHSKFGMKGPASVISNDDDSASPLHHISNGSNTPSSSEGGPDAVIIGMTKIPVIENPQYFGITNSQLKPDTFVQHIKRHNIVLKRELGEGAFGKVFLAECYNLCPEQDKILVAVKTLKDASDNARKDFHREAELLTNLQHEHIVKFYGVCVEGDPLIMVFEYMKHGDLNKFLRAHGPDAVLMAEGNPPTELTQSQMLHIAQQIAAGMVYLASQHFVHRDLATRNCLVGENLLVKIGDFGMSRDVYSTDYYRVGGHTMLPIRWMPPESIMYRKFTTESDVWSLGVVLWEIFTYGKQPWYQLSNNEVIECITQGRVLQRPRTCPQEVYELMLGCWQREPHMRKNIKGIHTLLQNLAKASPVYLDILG
Sequence of each individual kinase of the panel (Homo sapiens, UniProt P09769) (P09769 2-529 limits assumed): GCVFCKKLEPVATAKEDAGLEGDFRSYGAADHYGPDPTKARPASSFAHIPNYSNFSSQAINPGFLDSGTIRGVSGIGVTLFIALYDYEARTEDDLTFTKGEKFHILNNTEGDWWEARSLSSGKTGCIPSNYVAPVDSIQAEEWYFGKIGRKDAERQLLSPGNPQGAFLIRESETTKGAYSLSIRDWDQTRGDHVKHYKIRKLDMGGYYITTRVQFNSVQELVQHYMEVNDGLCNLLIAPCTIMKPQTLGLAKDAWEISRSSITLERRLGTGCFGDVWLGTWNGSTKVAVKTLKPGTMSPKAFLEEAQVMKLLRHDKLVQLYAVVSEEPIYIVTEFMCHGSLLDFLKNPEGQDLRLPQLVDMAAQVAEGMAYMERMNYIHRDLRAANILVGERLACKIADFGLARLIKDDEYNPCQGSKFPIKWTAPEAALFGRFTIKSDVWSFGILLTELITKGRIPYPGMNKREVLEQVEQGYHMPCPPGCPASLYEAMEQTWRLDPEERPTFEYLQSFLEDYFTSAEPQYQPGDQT

MSK1 percentage of activity [1]: 19%
SLK percentage of activity [2]: −15%
SGK2 percentage of activity [3]: 2%
LIMK1 percentage of activity [4]: 3%
MRCKA percentage of activity [5]: −10%
PRKX percentage of activity [6]: 3%
PAK6 percentage of activity [7]: −14%
EPHB2 percentage of activity [8]: 13%
PRKCE percentage of activity [9]: 0%
GSG2 percentage of activity [10]: 4%
NEK7 percentage of activity [11]: −14%
PRKCZ percentage of activity [12]: −9%
IKK beta percentage of activity [13]: 5%
TSSK2 percentage of activity [14]: −9%
p38-beta percentage of activity [15]: 5%
PRKCM percentage of activity [16]: −4%
TRKB percentage of activity [17]: 10%
FGFR4 percentage of activity [18]: 14%
JNK3 percentage of activity [19]: −3%
MSSK1 percentage of activity [20]: −3%
NLK percentage of activity [21]: 3%
PRKCD percentage of activity [22]: 7%
FGR percentage of activity [23]: 39%
CDK5/p25 percentage of activity [24]: 4%
CDK5/p35 percentage of activity [24]: −7%
LKB1 percentage of activity [25]: −2%
TSSK1 percentage of activity [26]: −18%
TBK1 percentage of activity [27]: 70%
PAK5 percentage of activity [28]: −8%
cKit(V654A) percentage of activity [29]: 8%
DCAMKL2 percentage of activity [30]: −3%
INSRR percentage of activity [31]: −21%
Structure (SMILES): C#Cc1cccc(Nc2nc3cc(C(=O)O)ccc3c3cncnc23)c1 [drawing 1135]
